In publication PMC5218480 (PLoS ONE, 2017):

Tested on: MV-4-11 cells
Experiment: Gene expression microarray analysis (Affymetrix PrimeView) and GSEA
Type: cell-based, human
Set-up: RFU PODN (11730768_x_at) / Fold change /veh PODN (11730768_x_at) / RFU LINC00158 (11744669_a_at) / Fold change /veh LINC00158 (11744669_a_at) / RFU DUSP10 (11751237_a_at) / Fold change /veh DUSP10 (11751237_a_at) / RFU ID3 (11757404_x_at) / Fold change /veh ID3 (11757404_x_at) / RFU PLEKHG5 (11737974_s_at) / Fold change /veh PLEKHG5 (11737974_s_at) / RFU LRRC4B (11730491_at) / Fold change /veh LRRC4B (11730491_at) / RFU GIMAP4 (11747438_a_at) / Fold change /veh GIMAP4 (11747438_a_at) / RFU KRT8 (11758183_x_at) / Fold change /veh KRT8 (11758183_x_at) / RFU CNN1 (11734310_a_at) / Fold change /veh CNN1 (11734310_a_at) / RFU VPS37D (11726825_at) / Fold change /veh VPS37D (11726825_at) / RFU C10orf10 (11716522_x_at) / Fold change /veh C10orf10 (11716522_x_at) / RFU KIR2DL2 /// KIR2DL4 /// KIR2DL5A /// KIR2DL5B /// KIR2DS1 /// KIR2DS2 /// KIR2DS3 /// KIR2DS4 /// KIR3DL3 /// KIR3DL3 /// KIR3DS1 (11738374_at) / Fold change /veh KIR2DL2 /// KIR2DL4 /// KIR2DL5A /// KIR2DL5B /// KIR2DS1 /// KIR2DS2 /// KIR2DS3 /// KIR2DS4 /// KIR3DL3 /// KIR3DL3 /// KIR3DS1 (11738374_at) / RFU C1QL1 (11718748_at) / Fold change /veh C1QL1 (11718748_at) / RFU TMPRSS4 (11747572_a_at) / Fold change /veh TMPRSS4 (11747572_a_at) / RFU HAMP (11756126_x_at) / Fold change /veh HAMP (11756126_x_at) / RFU RNFT2 (11725882_a_at) / Fold change /veh RNFT2 (11725882_a_at) / RFU NR4A2 (11747474_a_at) / Fold change /veh NR4A2 (11747474_a_at) / RFU ABCC12 (11746883_a_at) / Fold change /veh ABCC12 (11746883_a_at) / RFU TMEM136 (11760407_x_at) / Fold change /veh TMEM136 (11760407_x_at) / RFU CLDN22 /// WWC2 (11732394_at) / Fold change /veh CLDN22 /// WWC2 (11732394_at) / RFU HLA-DPB1 (11760878_x_at) / Fold change /veh HLA-DPB1 (11760878_x_at) / RFU SPINT1 (11716480_a_at) / Fold change /veh SPINT1 (11716480_a_at) / RFU GAP43 (11754022_s_at) / Fold change /veh GAP43 (11754022_s_at) / RFU A4GNT (11735810_at) / Fold change /veh A4GNT (11735810_at) / RFU PRB3 (11715151_x_at) / Fold change /veh PRB3 (11715151_x_at) / RFU TUBB4B (11761932_at) / Fold change /veh TUBB4B (11761932_at) / RFU CAPN14 (11732068_a_at) / Fold change /veh CAPN14 (11732068_a_at) / RFU TMCC2 (11721928_a_at) / Fold change /veh TMCC2 (11721928_a_at) / RFU IRGQ (11745062_a_at) / Fold change /veh IRGQ (11745062_a_at) / RFU FAM174B (11720279_a_at) / Fold change /veh FAM174B (11720279_a_at) / RFU TMPRSS4 (11748680_a_at) / Fold change /veh TMPRSS4 (11748680_a_at) / RFU FAM212B (11763350_a_at) / Fold change /veh FAM212B (11763350_a_at) / RFU PLEKHG5 (11743358_a_at) / Fold change /veh PLEKHG5 (11743358_a_at) / RFU ZSCAN30 (11745921_a_at) / Fold change /veh ZSCAN30 (11745921_a_at) / RFU CMKLR1 (11741424_a_at) / Fold change /veh CMKLR1 (11741424_a_at) / RFU LOC101060620 /// MAPK8IP1 (11723275_at) / Fold change /veh LOC101060620 /// MAPK8IP1 (11723275_at) / RFU SPTSSB (11747773_x_at) / Fold change /veh SPTSSB (11747773_x_at) / RFU PRSS12 (11739890_at) / Fold change /veh PRSS12 (11739890_at) / RFU BIN1 (11741810_x_at) / Fold change /veh BIN1 (11741810_x_at) / RFU WNT11 (11732464_a_at) / Fold change /veh WNT11 (11732464_a_at) / RFU C10orf10 (11716521_a_at) / Fold change /veh C10orf10 (11716521_a_at) / RFU C5orf56 (11738089_at) / Fold change /veh C5orf56 (11738089_at) / RFU CYB561 (11721691_x_at) / Fold change /veh CYB561 (11721691_x_at) / RFU ANKRD19P (11752326_a_at) / Fold change /veh ANKRD19P (11752326_a_at) / RFU OR2T12 /// OR2T33 /// OR2T8 (11738714_s_at) / Fold change /veh OR2T12 /// OR2T33 /// OR2T8 (11738714_s_at) / RFU VCAN (11748164_a_at) / Fold change /veh VCAN (11748164_a_at) / RFU JSRP1 (11732532_at) / Fold change /veh JSRP1 (11732532_at) / RFU KRTAP10-11 (11738290_x_at) / Fold change /veh KRTAP10-11 (11738290_x_at) / RFU MYO3A (11730013_a_at) / Fold change /veh MYO3A (11730013_a_at) / RFU EBF3 (11725865_a_at) / Fold change /veh EBF3 (11725865_a_at) / RFU CAMK2N1 (11719241_x_at) / Fold change /veh CAMK2N1 (11719241_x_at) / RFU C5orf56 (11738088_a_at) / Fold change /veh C5orf56 (11738088_a_at) / RFU OLFML3 (11715873_a_at) / Fold change /veh OLFML3 (11715873_a_at) / RFU LOC100653217 /// NTM (11731650_a_at) / Fold change /veh LOC100653217 /// NTM (11731650_a_at) / RFU MAPK11 (11762145_a_at) / Fold change /veh MAPK11 (11762145_a_at) / RFU FIZ1 (11724087_x_at) / Fold change /veh FIZ1 (11724087_x_at) / RFU OASL (11726364_x_at) / Fold change /veh OASL (11726364_x_at) / RFU SOX15 (11748057_x_at) / Fold change /veh SOX15 (11748057_x_at) / RFU CD79A (11719716_a_at) / Fold change /veh CD79A (11719716_a_at) / RFU HIST1H1D (11736915_at) / Fold change /veh HIST1H1D (11736915_at) / RFU CASKIN2 (11723855_a_at) / Fold change /veh CASKIN2 (11723855_a_at) / RFU LOC730098 (11760151_x_at) / Fold change /veh LOC730098 (11760151_x_at) / RFU OR4N2 (11742367_at) / Fold change /veh OR4N2 (11742367_at) / RFU PRRT2 (11749266_a_at) / Fold change /veh PRRT2 (11749266_a_at) / RFU SNX32 (11753110_a_at) / Fold change /veh SNX32 (11753110_a_at) / RFU CDHR5 (11726645_a_at) / Fold change /veh CDHR5 (11726645_a_at) / RFU RCAN1 (11760418_a_at) / Fold change /veh RCAN1 (11760418_a_at) / RFU FAM167A (11723789_a_at) / Fold change /veh FAM167A (11723789_a_at) / RFU FAM26E (11764081_at) / Fold change /veh FAM26E (11764081_at) / RFU ISYNA1 (11749810_s_at) / Fold change /veh ISYNA1 (11749810_s_at) / RFU ACY1 (11761880_at) / Fold change /veh ACY1 (11761880_at) / RFU 11764098_at / Fold change /veh 11764098_at / RFU SAMD14 (11745864_x_at) / Fold change /veh SAMD14 (11745864_x_at) / RFU NPB (11741838_a_at) / Fold change /veh NPB (11741838_a_at) / RFU TMPRSS6 (11731388_a_at) / Fold change /veh TMPRSS6 (11731388_a_at) / RFU KRTAP10-2 (11738614_at) / Fold change /veh KRTAP10-2 (11738614_at) / RFU ARHGAP8 /// PRR5-ARHGAP8 (11727945_x_at) / Fold change /veh ARHGAP8 /// PRR5-ARHGAP8 (11727945_x_at) / RFU KRTAP5-7 /// NADSYN1 (11734609_at) / Fold change /veh KRTAP5-7 /// NADSYN1 (11734609_at) / RFU RASL12 (11751679_a_at) / Fold change /veh RASL12 (11751679_a_at) / RFU CDKN2B (11736163_a_at) / Fold change /veh CDKN2B (11736163_a_at) / RFU PRF1 (11729649_at) / Fold change /veh PRF1 (11729649_at) / RFU, ZNF638 /// ZNF638-IT1 / Fold change vs veh, ZNF638 /// ZNF638-IT1 / RFU, PANK3 / Fold change vs veh, PANK3 / RFU, SH3YL1 / Fold change vs veh, SH3YL1 / RFU, ZEB2 / Fold change vs veh, ZEB2 / RFU, NRIP1 / Fold change vs veh, NRIP1 / RFU, PTTG1IP / Fold change vs veh, PTTG1IP / RFU, CAPN2 / Fold change vs veh, CAPN2 / RFU, MED14 / Fold change vs veh, MED14 / RFU, SNORA58 / Fold change vs veh, SNORA58 / RFU, C1orf63 / Fold change vs veh, C1orf63 / RFU, LRRFIP1 / Fold change vs veh, LRRFIP1 / RFU, NDUFAF7 / Fold change vs veh, NDUFAF7 / RFU, SLC12A2 / Fold change vs veh, SLC12A2 / RFU, IBTK / Fold change vs veh, IBTK / RFU, ESF1 / Fold change vs veh, ESF1 / Fold change vs veh, TMEM50B / RFU, TAOK1 / Fold change vs veh, TAOK1 / RFU, ACBD3 / Fold change vs veh, ACBD3 / RFU, TMA16 / Fold change vs veh, TMA16 / RFU, RWDD3 / Fold change vs veh, RWDD3 / RFU, BCAT1 / Fold change vs veh, BCAT1 / RFU, EDEM3 / Fold change vs veh, EDEM3 / RFU, TMEM33 / Fold change vs veh, TMEM33 / RFU, WDR75 / Fold change vs veh, WDR75 / RFU, AHCTF1 / Fold change vs veh, AHCTF1 / RFU, TFRC / Fold change vs veh, TFRC / RFU, ZDHHC17 / Fold change vs veh, ZDHHC17 / RFU, NOM1 / Fold change vs veh, NOM1 / RFU, ARL8B / Fold change vs veh, ARL8B / RFU, ZBTB11 / Fold change vs veh, ZBTB11 / RFU, TAMM41 / Fold change vs veh, TAMM41 / RFU, KIAA1704 /// LOC100996395 / Fold change vs veh, KIAA1704 /// LOC100996395 / RFU, ING1 / Fold change vs veh, ING1 / RFU, TRMT61B / Fold change vs veh, TRMT61B / RFU, FUBP3 / Fold change vs veh, FUBP3 / RFU, TP53 / Fold change vs veh, TP53 / RFU, TNKS2 / Fold change vs veh, TNKS2 / RFU, ZFP14 / Fold change vs veh, ZFP14 / RFU, ACTR2 / Fold change vs veh, ACTR2 / RFU, PPP3R1 / Fold change vs veh, PPP3R1 / RFU, PIK3R1 / Fold change vs veh, PIK3R1 / RFU, HNRNPA1 / Fold change vs veh, HNRNPA1 / RFU, RNF170 / Fold change vs veh, RNF170 / RFU, ZNF28 / Fold change vs veh, ZNF28 / RFU, RNGTT / Fold change vs veh, RNGTT / RFU, OGT / Fold change vs veh, OGT / RFU, BRD1 / Fold change vs veh, BRD1 / RFU, MARS / Fold change vs veh, MARS / RFU, ZNF655 / Fold change vs veh, ZNF655 / RFU, FAHD1 / Fold change vs veh, FAHD1 / RFU, BDP1 / Fold change vs veh, BDP1 / RFU, LRRCC1 / Fold change vs veh, LRRCC1 / RFU, ARID1A / Fold change vs veh, ARID1A / RFU, ZNF146 / Fold change vs veh, ZNF146 / RFU, ZNF330 / Fold change vs veh, ZNF330 / RFU, GPN3 / Fold change vs veh, GPN3 / RFU, C9orf123 / Fold change vs veh, C9orf123 / RFU, N4BP2L2 / Fold change vs veh, N4BP2L2 / RFU, ARFIP1 / Fold change vs veh, ARFIP1 / RFU, FAM179B / Fold change vs veh, FAM179B / RFU, BCL10 / Fold change vs veh, BCL10 / RFU, UHRF1BP1L / Fold change vs veh, UHRF1BP1L / RFU, BET1 / Fold change vs veh, BET1 / RFU, CNOT2 / Fold change vs veh, CNOT2 / RFU, ZNF268 / Fold change vs veh, ZNF268 / Fold change vs veh, ZNF507 / RFU, DGCR2 / Fold change vs veh, DGCR2 / RFU, WDSUB1 / Fold change vs veh, WDSUB1 / Fold change vs veh, HSP90B1 /// MIR3652 / RFU, ADSS / Fold change vs veh, ADSS / RFU, GK / Fold change vs veh, GK / RFU, ZNF148 / Fold change vs veh, ZNF148 / RFU, TAF9 / Fold change vs veh, TAF9 / RFU, SLC1A5 / Fold change vs veh, SLC1A5 / RFU, SLMO2 / Fold change vs veh, SLMO2 / RFU, ABCC4 / Fold change vs veh, ABCC4 / RFU, LOC101060439 /// RAP1B / Fold change vs veh, LOC101060439 /// RAP1B / RFU, RFX7 / Fold change vs veh, RFX7 / RFU, GTPBP10 / Fold change vs veh, GTPBP10 / RFU, CNEP1R1 / Fold change vs veh, CNEP1R1 / RFU, BIVM-ERCC5 /// ERCC5 / Fold change vs veh, BIVM-ERCC5 /// ERCC5 / RFU, ILF3 / Fold change vs veh, ILF3 / RFU 11762660_at / Fold change /veh 11762660_at / RFU VCAN (11757783_s_at) / Fold change /veh VCAN (11757783_s_at) / RFU DDX43 (11728927_at) / Fold change /veh DDX43 (11728927_at) / RFU KRT8 (11758188_x_at) / Fold change /veh KRT8 (11758188_x_at) / RFU NKD1 (11759106_at) / Fold change /veh NKD1 (11759106_at) / RFU SRD5A1 (11742802_a_at) / Fold change /veh SRD5A1 (11742802_a_at) / RFU TPSAB1 /// TPSB2 (11721975_s_at) / Fold change /veh TPSAB1 /// TPSB2 (11721975_s_at) / RFU GSTM3 (11746129_a_at) / Fold change /veh GSTM3 (11746129_a_at) / RFU IL23R (11737362_x_at) / Fold change /veh IL23R (11737362_x_at) / RFU TMEM51 (11727254_a_at) / Fold change /veh TMEM51 (11727254_a_at) / RFU PIWIL2 (11732686_x_at) / Fold change /veh PIWIL2 (11732686_x_at) / RFU ORM1 (11744905_x_at) / Fold change /veh ORM1 (11744905_x_at) / RFU CCDC152 (11743942_at) / Fold change /veh CCDC152 (11743942_at) / RFU ECM1 (11717891_a_at) / Fold change /veh ECM1 (11717891_a_at) / RFU IL23R (11748794_a_at) / Fold change /veh IL23R (11748794_a_at) / RFU TNFAIP8L3 (11732012_x_at) / Fold change /veh TNFAIP8L3 (11732012_x_at) / RFU MBOAT4 (11741988_at) / Fold change /veh MBOAT4 (11741988_at) / RFU 11764193_at / Fold change /veh 11764193_at / RFU TMEM53 (11763286_at) / Fold change /veh TMEM53 (11763286_at) / RFU MAGEB2 (11727129_at) / Fold change /veh MAGEB2 (11727129_at) / RFU TMEM200A (11744735_a_at) / Fold change /veh TMEM200A (11744735_a_at) / RFU CCDC152 (11751479_a_at) / Fold change /veh CCDC152 (11751479_a_at) / RFU FAM211A (11726209_a_at) / Fold change /veh FAM211A (11726209_a_at) / RFU RGS16 (11746705_a_at) / Fold change /veh RGS16 (11746705_a_at) / RFU VCAN (11755009_s_at) / Fold change /veh VCAN (11755009_s_at) / RFU RHOB (11743442_s_at) / Fold change /veh RHOB (11743442_s_at) / RFU RGS16 (11720943_a_at) / Fold change /veh RGS16 (11720943_a_at) / RFU RGS16 (11720944_at) / Fold change /veh RGS16 (11720944_at) / RFU, VPS4B / Fold change vs veh, VPS4B / RFU, CREB1 / Fold change vs veh, CREB1 / RFU, DNAJC13 / Fold change vs veh, DNAJC13 / RFU, GNAQ / Fold change vs veh, GNAQ / RFU, CDK5R1 / Fold change vs veh, CDK5R1 / RFU, ZRANB3 / Fold change vs veh, ZRANB3 / RFU, CUL4A / Fold change vs veh, CUL4A / RFU, CCNY / Fold change vs veh, CCNY / RFU, UFL1 / Fold change vs veh, UFL1 / RFU, COG3 / Fold change vs veh, COG3 / RFU, DIAPH2 / Fold change vs veh, DIAPH2 / RFU, SKA2 / Fold change vs veh, SKA2 / RFU, AFF3 / Fold change vs veh, AFF3 / RFU, LMF1 / Fold change vs veh, LMF1 / RFU, IPO11 / Fold change vs veh, IPO11 / RFU, DFFB / Fold change vs veh, DFFB / RFU, FOXP1 / Fold change vs veh, FOXP1 / RFU, CARD8 / Fold change vs veh, CARD8 / RFU, STRN3 / Fold change vs veh, STRN3 / RFU, ADK / Fold change vs veh, ADK / RFU, RASSF2 / Fold change vs veh, RASSF2 / RFU, WIPF1 / Fold change vs veh, WIPF1 / RFU, LARP1B / Fold change vs veh, LARP1B / RFU, RASA1 / Fold change vs veh, RASA1 / RFU, RB1 / Fold change vs veh, RB1 / RFU, PPFIA1 / Fold change vs veh, PPFIA1 / RFU, MAT2A / Fold change vs veh, MAT2A / RFU, CCT5 / Fold change vs veh, CCT5 / RFU, WDR92 / Fold change vs veh, WDR92 / RFU, CUX1 / Fold change vs veh, CUX1 / RFU, TTC7A / Fold change vs veh, TTC7A / RFU, TMEM135 / Fold change vs veh, TMEM135 / RFU, DEPTOR / Fold change vs veh, DEPTOR / RFU, CPM / Fold change vs veh, CPM / RFU, DNAJB6 / Fold change vs veh, DNAJB6 / RFU, CACNA2D3 / Fold change vs veh, CACNA2D3 / RFU, DTX4 / Fold change vs veh, DTX4 / RFU, TFCP2 / Fold change vs veh, TFCP2 / RFU, GMCL1 /// GMCL1P1 / Fold change vs veh, GMCL1 /// GMCL1P1 / RFU, AEBP2 / Fold change vs veh, AEBP2 / RFU, SNHG1 /// SNORD22 /// SNORD25 /// SNORD26 /// SNORD27 /// SNORD28 /// SNORD29 /// SNORD31 / Fold change vs veh, SNHG1 /// SNORD22 /// SNORD25 /// SNORD26 /// SNORD27 /// SNORD28 /// SNORD29 /// SNORD31 / Fold change (Aza/veh), C12orf56 (ProbeSet 11735607_a_at) / Fold change (ACY-1035/veh), C12orf56 (ProbeSet 11735607_a_at) / Fold change (Aza/veh), FGFR1OP (ProbeSet 11751329_s_at) / Fold change (ACY-1035/veh), FGFR1OP (ProbeSet 11751329_s_at) / Fold change (Aza/veh), VPS36 (ProbeSet 11739960_a_at) / Fold change (ACY-1035/veh), VPS36 (ProbeSet 11739960_a_at) / RFU SYPL1 (11715823_x_at) / Fold change /veh SYPL1 (11715823_x_at) / RFU IGFBP7 (11715501_s_at) / Fold change /veh IGFBP7 (11715501_s_at) / RFU REEP3 (11722064_at) / Fold change /veh REEP3 (11722064_at) / RFU IGLL1 (11728026_x_at) / Fold change /veh IGLL1 (11728026_x_at): dose or concentration left out as unconfirmed
Conditions: ProbeSet 11731093_s_at; LIST B

Nc1ncn([C@@H]2O[C@H](CO)[C@@H](O)[C@H]2O)c(=O)n1 [azacitidine]
Fold change vs veh, BRD1: 0.85
